Reference: ChEMBL document CHEMBL4196124, “Reverse Hydroxamate Inhibitors of Bone Morphogenetic Protein 1” (ACS Med Chem Lett, 2018)

Columns and labels:
Tolloid-like protein 1 = target: T1, Tolloid-like protein 1 (Homo sapiens, UniProt O43897); experiment: Inhibition of recombinant human full length TLL1 using ((5-FAM)-ELIDQYDVQRDDSSDGSLED-K(5,6 TAMRA)-CONH2) as substrate preincubated for 10 mins followed by substrate addition measured after 60 mins
T1 sequence (O43897 whole entry): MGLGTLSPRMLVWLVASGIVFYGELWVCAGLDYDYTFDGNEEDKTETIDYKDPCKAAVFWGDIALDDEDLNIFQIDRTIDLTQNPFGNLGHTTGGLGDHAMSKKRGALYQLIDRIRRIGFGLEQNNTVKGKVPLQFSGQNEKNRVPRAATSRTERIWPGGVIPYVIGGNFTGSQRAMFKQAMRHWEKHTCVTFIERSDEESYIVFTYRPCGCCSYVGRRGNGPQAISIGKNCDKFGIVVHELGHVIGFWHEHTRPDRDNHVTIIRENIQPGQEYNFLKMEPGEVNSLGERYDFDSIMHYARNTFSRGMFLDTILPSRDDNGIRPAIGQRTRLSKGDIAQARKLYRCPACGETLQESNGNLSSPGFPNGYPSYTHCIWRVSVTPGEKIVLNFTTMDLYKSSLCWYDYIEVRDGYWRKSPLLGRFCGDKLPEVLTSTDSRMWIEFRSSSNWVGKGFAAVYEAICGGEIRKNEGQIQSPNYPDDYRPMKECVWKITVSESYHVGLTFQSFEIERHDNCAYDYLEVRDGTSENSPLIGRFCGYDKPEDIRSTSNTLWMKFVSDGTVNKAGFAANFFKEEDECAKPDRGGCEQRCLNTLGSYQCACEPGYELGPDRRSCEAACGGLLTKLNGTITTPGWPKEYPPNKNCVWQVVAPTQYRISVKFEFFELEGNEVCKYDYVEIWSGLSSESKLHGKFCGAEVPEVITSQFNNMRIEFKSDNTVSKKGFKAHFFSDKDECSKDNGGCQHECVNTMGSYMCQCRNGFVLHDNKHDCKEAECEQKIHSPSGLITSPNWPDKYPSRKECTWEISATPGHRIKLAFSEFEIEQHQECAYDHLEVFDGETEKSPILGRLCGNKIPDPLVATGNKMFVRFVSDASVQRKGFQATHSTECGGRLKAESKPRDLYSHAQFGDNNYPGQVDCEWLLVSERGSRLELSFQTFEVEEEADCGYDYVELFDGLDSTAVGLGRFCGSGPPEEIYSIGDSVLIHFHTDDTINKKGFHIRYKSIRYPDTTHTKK

Homo sapiens [1] = species: Homo sapiens; experiment: Selectivity ratio of IC50 for recombinant human C-terminal MMP14 (Tyr92 to Arg278 residues) catalytic domain expressed in Escherichia coli to IC50 for recombinant human N-terminal 6His/flag-tagged BMP1 (121 to 721 residues) expressed in CHO cells
Homo sapiens [2] = species: Homo sapiens; experiment: Selectivity ratio of IC50 for recombinant human C-terminal MMP2 (81 to 423 residues) catalytic domain expressed in Escherichia coli to IC50 for recombinant human N-terminal 6His/flag-tagged BMP1 (121 to 721 residues) expressed in CHO cells
Homo sapiens [3] = species: Homo sapiens; experiment: Selectivity ratio of IC50 for recombinant human C-terminal MMP13 (85 to 255 residues) catalytic domain expressed in Escherichia coli to IC50 for recombinant human N-terminal 6His/flag-tagged BMP1 (121 to 721 residues) expressed in CHO cells
Homo sapiens [4] = species: Homo sapiens; experiment: Selectivity ratio of IC50 for recombinant human C-terminal MMP9 (88 to 438 residues) catalytic domain expressed in Escherichia coli to IC50 for recombinant human N-terminal 6His/flag-tagged BMP1 (121 to 721 residues) expressed in CHO cells
Homo sapiens [5] = species: Homo sapiens; experiment: Selectivity ratio of IC50 for MMP8 (unknown origin) to IC50 for recombinant human N-terminal 6His/flag-tagged BMP1 (121 to 721 residues) expressed in CHO cells; format: cell-based
Homo sapiens [6] = species: Homo sapiens; experiment: Selectivity ratio of IC50 for ACE2 (unknown origin) to IC50 for recombinant human N-terminal 6His/flag-tagged BMP1 (121 to 721 residues) expressed in CHO cells; format: cell-based
Homo sapiens [7] = species: Homo sapiens; experiment: Selectivity ratio of IC50 for recombinant human C-terminal MMP1 (81 to 249 residues) catalytic domain expressed in Escherichia coli to IC50 for recombinant human N-terminal 6His/flag-tagged BMP1 (121 to 721 residues) expressed in CHO cells
Homo sapiens [8] = species: Homo sapiens; experiment: Selectivity ratio of IC50 for ADAM9 (unknown origin) to IC50 for recombinant human N-terminal 6His/flag-tagged BMP1 (121 to 721 residues) expressed in CHO cells; format: cell-based
Homo sapiens [9] = species: Homo sapiens; experiment: Selectivity ratio of IC50 for MMP10 (unknown origin) to IC50 for recombinant human N-terminal 6His/flag-tagged BMP1 (121 to 721 residues) expressed in CHO cells; format: cell-based
Homo sapiens [10] = species: Homo sapiens; experiment: Selectivity ratio of IC50 for recombinant human C-terminal MMP3 (83 to 255 residues) catalytic domain expressed in Escherichia coli to IC50 for recombinant human N-terminal 6His/flag-tagged BMP1 (121 to 721 residues) expressed in CHO cells
Homo sapiens [11] = species: Homo sapiens; experiment: Selectivity ratio of IC50 for recombinant human C-terminal MMP7 (78 to 250 residues) catalytic domain expressed in Escherichia coli to IC50 for recombinant human N-terminal 6His/flag-tagged BMP1 (121 to 721 residues) expressed in CHO cells
Homo sapiens [12] = species: Homo sapiens; experiment: Selectivity ratio of IC50 for ADAM10 (unknown origin) to IC50 for recombinant human N-terminal 6His/flag-tagged BMP1 (121 to 721 residues) expressed in CHO cells; format: cell-based
Homo sapiens [13] = species: Homo sapiens; experiment: Selectivity ratio of IC50 for recombinant human C-terminal MMP12 (84 to 255 residues) catalytic domain expressed in Escherichia coli to IC50 for recombinant human N-terminal 6His/flag-tagged BMP1 (121 to 721 residues) expressed in CHO cells
Cytochrome P450 3A4 = Cytochrome P450 3A4 (Homo sapiens, UniProt P08684); experiment: Time dependent inhibition of CYP3A4 (unknown origin) at 33 uM measured over 15 mins relative to control; format: ADME; conditions: 0.25 h
Homo sapiens [14] = species: Homo sapiens; experiment: Selectivity ratio of IC50 for human ACE1 to IC50 for recombinant human N-terminal 6His/flag-tagged BMP1 (121 to 721 residues) expressed in CHO cells; format: cell-based
[15] = target: Macrophage metalloelastase (Homo sapiens, UniProt P39900); experiment: Inhibition of MMP12 (unknown origin)
Sequence of Macrophage metalloelastase (P39900 whole entry): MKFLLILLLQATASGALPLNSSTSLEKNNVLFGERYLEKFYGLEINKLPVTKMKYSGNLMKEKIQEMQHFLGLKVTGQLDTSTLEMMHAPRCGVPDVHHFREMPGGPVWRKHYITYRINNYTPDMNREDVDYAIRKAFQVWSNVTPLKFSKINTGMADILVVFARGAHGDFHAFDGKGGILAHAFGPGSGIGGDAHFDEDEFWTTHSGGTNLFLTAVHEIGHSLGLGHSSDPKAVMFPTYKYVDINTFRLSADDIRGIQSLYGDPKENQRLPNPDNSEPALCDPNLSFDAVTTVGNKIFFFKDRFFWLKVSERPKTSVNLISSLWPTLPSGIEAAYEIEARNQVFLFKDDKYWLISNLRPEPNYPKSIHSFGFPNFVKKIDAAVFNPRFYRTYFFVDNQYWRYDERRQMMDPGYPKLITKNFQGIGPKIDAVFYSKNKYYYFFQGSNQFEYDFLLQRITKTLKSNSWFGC

Sequence of Cytochrome P450 3A4 (P08684 whole entry, the tested form may be a part): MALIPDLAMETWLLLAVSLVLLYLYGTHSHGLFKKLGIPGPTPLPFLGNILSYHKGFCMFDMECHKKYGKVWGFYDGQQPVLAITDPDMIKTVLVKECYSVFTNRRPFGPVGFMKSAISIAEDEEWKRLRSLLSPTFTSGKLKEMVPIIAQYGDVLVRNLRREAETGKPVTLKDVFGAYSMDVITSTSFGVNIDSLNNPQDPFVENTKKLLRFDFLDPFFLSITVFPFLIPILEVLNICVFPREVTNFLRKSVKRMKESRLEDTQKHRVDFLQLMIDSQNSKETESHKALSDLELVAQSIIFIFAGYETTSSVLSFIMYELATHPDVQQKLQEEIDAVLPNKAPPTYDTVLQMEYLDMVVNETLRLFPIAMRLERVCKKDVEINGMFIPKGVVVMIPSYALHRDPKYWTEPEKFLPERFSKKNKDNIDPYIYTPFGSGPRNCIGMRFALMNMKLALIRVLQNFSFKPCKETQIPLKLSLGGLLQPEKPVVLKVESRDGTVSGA

IC50 (Tolloid-like protein 1): 0.1 µM | fold change (FC) (Cytochrome P450 3A4): 4.3 | IC50 [15]: 10 µM
Compound: CCCCC[C@@H](C(=O)NCNC(=O)c1ccc(-c2ccccc2)o1)[C@@H](CC)N(O)C=O
Ratio IC50 (Homo sapiens [1]): > 30 | Ratio IC50 (Homo sapiens [2]): > 30 | Ratio IC50 (Homo sapiens [3]): > 30 | Ratio IC50 (Homo sapiens [4]): > 30 | Ratio IC50 (Homo sapiens [5]): > 30 | Ratio IC50 (Homo sapiens [6]): > 30 | Ratio IC50 (Homo sapiens [7]): > 30 | Ratio IC50 (Homo sapiens [8]): > 30 | Ratio IC50 (Homo sapiens [9]): > 30 | Ratio IC50 (Homo sapiens [10]): > 30 | Ratio IC50 (Homo sapiens [11]): > 30 | Ratio IC50 (Homo sapiens [12]): > 30 | Ratio IC50 (Homo sapiens [13]): > 30 | Ratio IC50 (Homo sapiens [14]): > 30
